# Measured values published in DBAASP.
# Key:
# Assay in all cases: ≥ marks a high value that may be exact or a test limit, other limits are often not marked, values filed in µg/mL are converted to µM
# [1] = tested on: Trichosporon beigelii KCTC 7707
# [2] = tested on: Staphylococcus aureus CCARM 3518
# [3] = tested on: Candida albicans KCTC 7270
# [4] = tested on: Pseudomonas aeruginosa 4007
# [5] = tested on: Escherichia coli CCARM 1229
# [6] = tested on: Pseudomonas aeruginosa 4891
# [7] = tested on: Escherichia coli CCARM 1238
# [8] = tested on: Staphylococcus aureus CCARM 3090
# [9] = tested on: Candida albicans ATCC 10231
# [10] = tested on: Candida parapsilosis CBS 604
# Candida krusei CBS 573 = tested on: Candida krusei CBS 573
# [11] = tested on: Saccharomyces cerevisiae SZMC 0644
# [12] = tested on: Staphylococcus aureus CMCC 26003
# [13] = tested on: Listeria monocytogenes ATCC 19115
# [14] = tested on: Enterococcus faecalis ATCC 29212
# [15] = tested on: Salmonella enterica subsp. enterica serovar Typhimurium ATCC 14028
# [16] = tested on: Streptococcus equi subsp. zooepidemicus ATCC 43079
# [17] = tested on: Staphylococcus aureus ATCC 25923
# [18] = tested on: Streptococcus dysgalactiae subsp. dysgalactiae ATCC 27957
# [19] = tested on: Bacillus cereus ATCC 10876
# [20] = tested on: Staphylococcus aureus ATCC 6538
# [21] = tested on: Streptococcus agalactiae ATCC 27956
# [22] = tested on: Streptococcus iniae KCTC 3657
# Klebsiella pneumoniae = tested on: Klebsiella pneumoniae
# [23] = tested on: Escherichia coli ATCC 25922
# [24] = tested on: Pseudomonas aeruginosa ATCC 27853
# [25] = tested on: Kocuria rhizophila ATCC 9341
# [26] = tested on: Staphylococcus aureus ST1065
# [27] = tested on: Escherichia coli ATCC 35218
# [28] = tested on: Staphylococcus epidermidis BM3302
# [29] = tested on: Staphylococcus aureus DAR 5829
# Escherichia coli ML-35p = tested on: Escherichia coli ML-35p
# Escherichia coli K-12 = tested on: Escherichia coli K-12
# [30] = tested on: Escherichia coli ATCC 8739
# [31] = tested on: Staphylococcus aureus ATCC 29213
# [32] = tested on: Bacillus subtilis subsp. subtilis CIP 52.65
# [33] = tested on: Enterococcus faecium BM4147
# [34] = tested on: Lacticaseibacillus casei HZ1
# [35] = tested on: Listeria monocytogenes ATCC 7611
# [36] = tested on: Klebsiella aerogenes ATCC 13048
# Saccharomyces cerevisiae = tested on: Saccharomyces cerevisiae
# [37] = tested on: Klebsiella pneumoniae ATCC 700603
compound,measurement,setting,value
CC[C@H](C)[C@H](NC(=O)[C@H](CC(C)C)NC(=O)[C@H](CCCCN)NC(=O)[C@@H](NC(=O)[C@H](C)NC(=O)[C@H](CCC(=O)O)NC(=O)[C@H](Cc1cnc[nH]1)NC(=O)[C@@H](NC(=O)[C@H](CCCCN)NC(=O)[C@H](CCC(N)=O)NC(=O)[C@H](Cc1ccccc1)NC(=O)[C@@H](NC(=O)[C@H](CCCCN)NC(=O)[C@H](CCCCN)NC(=O)[C@H](CC(C)C)NC(=O)[C@H](C)NC(=O)[C@H](CC(N)=O)NC(=O)[C@@H](N)CC(C)C)C(C)C)[C@@H](C)CC)[C@@H](C)CC)C(N)=O [LNALKKVFQKIHEAIKLI],MIC,[1],8 µM
same,MIC,[2],4 µM
same,MIC,[3],16 µM
same,MIC,[4],2 µM
same,MIC,[5],2 µM
same,MIC,[6],4 µM
same,MIC,[7],2 µM
same,MIC,[8],4 µM
CC[C@H](C)[C@H](NC(=O)[C@@H](NC(=O)[C@H](CCCCN)NC(=O)[C@H](CO)NC(=O)[C@H](CCCCN)NC(=O)[C@H](CC(=O)O)NC(=O)[C@H](CO)NC(=O)[C@@H]1CCCN1C(=O)CNC(=O)[C@H](CO)NC(=O)[C@H](Cc1cnc[nH]1)NC(=O)[C@H](Cc1ccc(O)cc1)NC(=O)[C@@H](N)CCCCN)C(C)C)C(=O)N[C@@H](CO)C(=O)O [KYHSGPSDKSKVIS],MIC,[9],> 65.2 µM
same,MIC,[10],≥ 65.2 µM
same,MIC,Candida krusei CBS 573,≥ 65.2 µM
same,MIC,[11],≥ 65.2 µM
CC[C@H](C)[C@H](NC(=O)[C@H](CCCN=C(N)N)NC(=O)[C@H](CCCN=C(N)N)NC(=O)[C@H](Cc1c[nH]c2ccccc12)NC(=O)[C@@H](N)Cc1ccccc1)C(=O)N[C@@H](CCCN=C(N)N)C(=O)N[C@H](C(=O)N[C@H](C(=O)N1CCC[C@H]1C(=O)N[C@H](C(=O)N[C@H](C(=O)N[C@@H](CC(N)=O)C(=O)N1CCC[C@H]1C(=O)N1CCC[C@H]1C(=O)N[C@@H](Cc1ccccc1)C(=O)N[C@@H](CC(C)C)C(=O)N[C@@H](CCC(N)=O)C(=O)N[C@@H](CCC(N)=O)C(=O)N[C@H](C(N)=O)[C@@H](C)O)C(C)C)C(C)C)[C@@H](C)O)C(C)C [FWRRIRVTPVVNPPFLQQT],MIC,[12],≥ 109 µM
same,MIC,[13],≥ 109 µM
CC[C@H](C)[C@H](NC(=O)[C@H](CCCCN)NC(=O)[C@H](CCC(N)=O)NC(=O)[C@H](CC(C)C)NC(=O)CNC(=O)[C@H](CCCCN)NC(=O)CNC(=O)[C@H](CC(C)C)NC(=O)[C@H](CCCCN)NC(=O)[C@H](CCCCN)NC(=O)[C@H](CCCN=C(N)N)NC(=O)[C@H](C)NC(=O)[C@H](CCCCN)NC(=O)[C@H](CCCN=C(N)N)NC(=O)[C@H](Cc1ccccc1)NC(=O)[C@H](Cc1ccccc1)NC(=O)[C@H](CCCCN)NC(=O)[C@@H](N)CO)C(=O)N[C@@H](CCCCN)C(=O)N[C@@H](CC(N)=O)C(=O)N[C@H](C(=O)N[C@@H](CC(C)C)C(=O)N[C@@H](CCCN=C(N)N)C(=O)N[C@@H](CCCCN)C(=O)N[C@@H](Cc1ccc(O)cc1)C(=O)O)C(C)C [SKFFRKARKKLGKGLQKIKNVLRKY],MIC,[14],13.2 µM
same,MIC,[15],1.65 µM
same,MIC,[16],4.9 µM
same,MIC,[17],24.7 µM
same,MIC,[18],4.9 µM
same,MIC,[19],21.1 µM
same,MIC,[20],13.2 µM
same,MIC,[21],13.2 µM
same,MIC,[22],21.1 µM
same,MIC,Klebsiella pneumoniae,1.32 µM
same,MIC,[23],0.264 µM
same,MIC,[24],0.329 µM
CC[C@H](C)[C@H](NC(=O)CNC(=O)[C@H](Cc1c[nH]c2ccccc12)NC(=O)[C@@H](NC(=O)CN)C(C)C)C(=O)N[C@@H](C)C(=O)N[C@@H](CCCCN)C(=O)N[C@H](C(=O)N[C@@H](C)C(=O)NCC(=O)N[C@@H](CCCCN)C(=O)N[C@H](C(=O)N[C@@H](CC(C)C)C(=O)NCC(=O)N[C@@H](CC(N)=O)C(=O)N[C@H](C(=O)N[C@@H](CC(C)C)C(=O)N1CCC[C@H]1C(=O)N[C@@H](Cc1cnc[nH]1)C(=O)N[C@H](C(=O)N[C@@H](Cc1ccccc1)C(=O)N[C@@H](CO)C(=O)N[C@@H](CO)C(=O)N[C@@H](CC(N)=O)C(=O)N[C@@H](CCC(N)=O)C(=O)N[C@@H](CO)C(N)=O)C(C)C)[C@@H](C)CC)C(C)C)[C@@H](C)CC [GVWGIAKIAGKVLGNILPHVFSSNQS],MIC,[25],3.12 µM
same,MIC,[14],50 µM
same,MIC,[26],12.5 µM
same,MIC,[27],≥ 100 µM
same,MIC,[28],12.5 µM
same,MIC,[29],25 µM
same,MIC,Escherichia coli ML-35p,≥ 100 µM
same,MIC,Escherichia coli K-12,≥ 100 µM
same,MIC,[20],6.25 µM
same,MIC,[30],25 µM
same,MIC,[31],3.12 µM
same,MIC,[32],6.25 µM
same,MIC,[33],25 µM
same,MIC,[24],> 100 µM
CC(C)C[C@H](NC(=O)[C@H](Cc1ccccc1)NC(=O)[C@H](CCCCN)NC(=O)[C@H](Cc1ccccc1)NC(=O)[C@H](Cc1ccccc1)NC(=O)[C@H](Cc1cnc[nH]1)NC(=O)[C@@H](NC(=O)[C@H](Cc1c[nH]c2ccccc12)NC(=O)[C@@H](NC(=O)[C@H](CO)NC(=O)[C@@H]1CCCN1C(=O)[C@H](CC(C)C)NC(=O)[C@H](Cc1ccccc1)NC(=O)[C@H](CC(C)C)NC(=O)[C@H](CCCCN)NC(=O)[C@H](CC(C)C)NC(=O)[C@@H]1CCCN1C(=O)[C@H](CC(N)=O)NC(=O)CN)[C@@H](C)O)C(C)C)C(=O)N[C@@H](CCCN=C(N)N)C(=O)O [GNPLKLFLPSTWVHFFKFLR],MIC,[34],≥ 32 µM
same,MIC,[35],4 µM
same,MIC,[36],≥ 64 µM
same,MIC,Saccharomyces cerevisiae,≥ 256 µM
same,MIC,[31],4 µM
same,MIC,[37],> 256 µM
